This is an account of results in US20130267532A1, “CYCLIC AMIDE COMPOUNDS AND THEIR USE IN THE TREATMENT OF DISEASE” (priority 2010, published 2013).

The target in one assay is T1, full-length human TLR8 (Homo sapiens, UniProt Q9NR97).
T1 construct: a stably co-transfected cell line which expresses full-length human TLR8; host or cells: TLR8/NF-κB/SEAPorter HEK 293 Cell Line
T1 sequence (Q9NR97 27-1041): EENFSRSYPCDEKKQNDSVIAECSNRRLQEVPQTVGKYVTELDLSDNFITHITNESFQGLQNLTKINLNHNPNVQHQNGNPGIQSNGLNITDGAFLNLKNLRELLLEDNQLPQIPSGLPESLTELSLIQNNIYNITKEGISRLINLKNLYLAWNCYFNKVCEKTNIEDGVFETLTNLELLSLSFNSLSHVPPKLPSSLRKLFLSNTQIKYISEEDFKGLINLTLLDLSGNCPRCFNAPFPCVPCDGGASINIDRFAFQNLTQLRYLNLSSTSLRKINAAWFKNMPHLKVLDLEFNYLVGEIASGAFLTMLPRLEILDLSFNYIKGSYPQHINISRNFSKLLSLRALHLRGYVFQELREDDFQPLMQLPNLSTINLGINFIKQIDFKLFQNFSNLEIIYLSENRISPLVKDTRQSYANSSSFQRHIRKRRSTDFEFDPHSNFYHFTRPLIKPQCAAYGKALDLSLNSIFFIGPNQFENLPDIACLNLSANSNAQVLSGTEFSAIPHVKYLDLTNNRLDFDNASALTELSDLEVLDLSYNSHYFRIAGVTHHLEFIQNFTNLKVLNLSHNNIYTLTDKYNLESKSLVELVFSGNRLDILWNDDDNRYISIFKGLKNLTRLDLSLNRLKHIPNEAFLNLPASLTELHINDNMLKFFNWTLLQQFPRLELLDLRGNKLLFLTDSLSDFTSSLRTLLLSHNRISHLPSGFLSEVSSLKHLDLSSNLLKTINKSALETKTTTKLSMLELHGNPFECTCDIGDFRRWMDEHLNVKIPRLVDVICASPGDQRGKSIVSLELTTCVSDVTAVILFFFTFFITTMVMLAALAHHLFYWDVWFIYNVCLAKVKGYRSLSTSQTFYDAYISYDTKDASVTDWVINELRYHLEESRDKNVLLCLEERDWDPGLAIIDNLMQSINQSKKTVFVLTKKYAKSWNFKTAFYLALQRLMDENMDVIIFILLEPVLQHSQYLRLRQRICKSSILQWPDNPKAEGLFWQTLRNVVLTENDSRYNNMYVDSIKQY
In words: Human TLR8 assay (TLR8/NF-κB/SEAPorter HEK 293 cell line). The class given is cell-based. Particulars: TLR8 activation, SEAP induction, HEK 293 reporter cells, overnight incubation at 37° C., 0.1% DMSO. The source says:
TLR8/NF-κB/SEAPorter™ HEK 293 Cell Line (Imgenex Corporation) is a stably co-transfected cell line which expresses full-length human TLR8 and the secreted alkaline phosphatase (SEAP) reporter gene under the transcriptional control of an NF-κB response element. TLR8 expression in this cell line has been tested by flow cytometry. Transfectants with stable expression were selected using the antibiotic blasticidin and geneticin. TLR signaling leads to the translocation of NF-κB and activation of the promoter results in expression of the SEAP gene. TLR8-specific activation was assessed by determining the level of SEAP produced following overnight incubation of the cells at 37° C. with the standard compound in the presence of 0.1% (v/v) dimethylsulfoxide (DMSO). Concentration dependent induction of SEAP production by compounds was expressed as the concentration of compound which produced half of the maximal level of SEAP induction for that compound (EC50).

In a further assay the target is T2, Recombinant human TLR7 (Homo sapiens, UniProt Q9NYK1).
T2 construct: expressed in transfected cells; host or cells: HEK293 cell line stably expressing the pNiFty2-SEAP reporter plasmid
T2 sequence (Q9NYK1 27-1049): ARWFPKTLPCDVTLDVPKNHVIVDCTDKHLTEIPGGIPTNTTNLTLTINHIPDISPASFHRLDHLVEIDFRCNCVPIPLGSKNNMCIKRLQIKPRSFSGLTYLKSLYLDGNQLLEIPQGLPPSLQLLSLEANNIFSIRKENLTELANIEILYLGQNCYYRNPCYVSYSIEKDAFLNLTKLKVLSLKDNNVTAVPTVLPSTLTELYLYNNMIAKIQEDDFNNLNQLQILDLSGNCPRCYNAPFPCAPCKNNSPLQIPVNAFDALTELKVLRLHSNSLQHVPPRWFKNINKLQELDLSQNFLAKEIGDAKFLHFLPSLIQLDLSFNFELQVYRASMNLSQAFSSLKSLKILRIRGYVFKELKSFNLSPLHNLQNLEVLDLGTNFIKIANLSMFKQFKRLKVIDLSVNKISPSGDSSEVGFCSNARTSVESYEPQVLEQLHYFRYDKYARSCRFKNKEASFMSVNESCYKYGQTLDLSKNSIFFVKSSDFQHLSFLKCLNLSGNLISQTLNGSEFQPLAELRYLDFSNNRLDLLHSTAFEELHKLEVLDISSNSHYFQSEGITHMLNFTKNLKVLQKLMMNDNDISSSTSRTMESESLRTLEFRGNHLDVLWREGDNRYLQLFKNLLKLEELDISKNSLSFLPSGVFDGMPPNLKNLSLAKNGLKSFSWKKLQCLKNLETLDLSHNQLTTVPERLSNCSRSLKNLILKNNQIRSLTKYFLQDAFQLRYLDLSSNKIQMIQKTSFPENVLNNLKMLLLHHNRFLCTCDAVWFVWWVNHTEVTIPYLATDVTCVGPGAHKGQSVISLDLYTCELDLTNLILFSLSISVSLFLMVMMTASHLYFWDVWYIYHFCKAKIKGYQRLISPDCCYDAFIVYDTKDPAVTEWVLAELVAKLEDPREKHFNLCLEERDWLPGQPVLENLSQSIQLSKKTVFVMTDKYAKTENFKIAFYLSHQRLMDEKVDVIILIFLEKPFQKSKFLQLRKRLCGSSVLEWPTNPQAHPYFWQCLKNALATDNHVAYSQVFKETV
In words: Human TLR7 assay (SEAP reporter in HEK293 cells). As to conditions: TLR7 activation, SEAP induction, overnight incubation at 37° C., 0.1% DMSO. The format is cell-based. As for the experimental part:
The ability of compounds to activate TLR7 in vitro was assessed using the human TLR7 assay described below.
Recombinant human TLR7 was stably expressed in a HEK293 cell line already stably expressing the pNiFty2-SEAP reporter plasmid; integration of the reporter gene was maintained by selection with the antibiotic zeocin. The most common variant sequence of human TLR7 (represented by the EMBL sequence AF240467) was cloned into the mammalian cell expression vector pUNO and transfected into this reporter cell-line. Transfectants with stable expression were selected using the antibiotic blasticidin. In this reporter cell-line, expression of secreted alkaline phosphatase (SEAP) is controlled by an NF-κB/ELAM-1 composite promoter comprising five NF-κB sites combined with the proximal ELAM-1 promoter. TLR signaling leads to the translocation of NF-κB and activation of the promoter results in expression of the SEAP gene. TLR7-specific activation was assessed by determining the level of SEAP produced following overnight incubation of the cells at 37° C. with the standard compound in the presence of 0.1% (v/v) dimethylsulfoxide (DMSO). Concentration dependent induction of SEAP production by compounds was expressed as the concentration of compound which produced half of the maximal level of SEAP induction for that compound (EC50).

Broadly, the EC50 is the concentration at which the effect is half-maximal. Turning to `CCCCNc1nc(N)nc(C)c1Cc1ccc(N2CCN(C)CC2=O)cc1OC` [Example 1, 1-(4-{[2-Amino-4-(butylamino)-6-methylpyrimidin-5-yl]methyl}-3-methoxyphenyl)-4-methylpiperazin-2-one], the figures for the EC50 at full-length human TLR8 and on Recombinant human TLR7 were above 10000 nM and 63.1 nM, respectively.
Taken in the same sequence, the figures for `CCCCCNc1nc(N)nc(C)c1Cc1ccc(N2CCN(C)CC2=O)cc1OC` [Example 2, 1-(4-{[2-Amino-4-methyl-6-(pentylamino)pyrimidin-5-yl]methyl}-3-methoxyphenyl)-4-methylpiperazin-2-one] were above 10000 nM and 63.1 nM.
In the same order, the values of `CCC[C@@H](CCO)Nc1nc(N)nc(C)c1Cc1ccc(N2CCN(C)CC2=O)cc1OC` [Example 3, (S)-1-(4-{[2-Amino-4-(1-hydroxyhexan-3-ylamino)-6-methylpyrimidin-5-yl]methyl}-3-methoxyphenyl)-4-methylpiperazin-2-one] are 6310 nM and 25.1 nM.
In the case of `CCC[C@@H](CO)Nc1nc(N)nc(C)c1Cc1ccc(N2CCN(C)CC2=O)cc1OC` [Example 4, (S)-1-(4-{[2-Amino-4-(1-hydroxypentan-2-ylamino)-6-methylpyrimidin-5-yl]methyl}-3-methoxyphenyl)-4-methylpiperazin-2-one], the EC50 on full-length human TLR8 is 5010 nM; on Recombinant human TLR7, 200 nM.
Taken in the same sequence, the figures for `CCC[C@@H](CCO)Nc1nc(N)nc(C)c1Cc1ccc(N2CCNCC2=O)cc1OC` [Example 5, (S)-1-(4-{[2-Amino-4-(1-hydroxyhexan-3-ylamino)-6-methylpyrimidin-5-yl]methyl}-3-methoxyphenyl)piperazin-2-one] were above 10000 nM and 126 nM.
